Experimental data as given in patent US20240158446A1, “CYCLIC COMPOUND HAVING SELECTIVE INHIBITORY ACTION ON KRAS OVER HRAS AND NRAS” (CHUGAI SEIYAKU KABUSHIKI KAISHA, priority 2021, published 2024).
Like-named read-outs stand apart in the source and are kept apart here. *1 amine or outer side, *2 acyl side, *3 side chain or, on linkers, in order; H or OH if unused. Where a SMILES comes first, the peptide text is derived from it. Bridges are numbered along the chain shown (N, C = ends). [ ]: non-standard residue; d: D form. The star is where a group is joined. hPhe(3-Cl-4-CF3) = N[C@@H](CCc1ccc(C(F)(F)F)c(Cl)c1)C(=O)O; X17 = CCCCN([C@@H](Cc1ccc(C(F)(F)F)cc1)C(=O)[*:2])[*:1]; NPrPhe(4-CF3) = CCCN[C@@H](Cc1ccc(C(F)(F)F)cc1)C(=O)O; NEtPhe(4-CF3) = CCN[C@@H](Cc1ccc(C(F)(F)F)cc1)C(=O)O; NEtPhe(4-Me) = CCN[C@@H](Cc1ccc(C)cc1)C(=O)O; NMeGly(cPent) = CN[C@H](C(=O)O)C1CCCC1; Pro(4,4-F2) = O=C(O)[C@@H]1CC(F)(F)CN1; Hyp = O=C(O)[C@@H]1C[C@@H](O)CN1; NMeD = CN[C@@H](CC(=O)O)C(=O)O; NMeL = CN[C@@H](CC(C)C)C(=O)O; Morpholide = C1CN(*)CCO1; NMeA = CN[C@@H](C)C(=O)O; NMeAib = CNC(C)(C)C(=O)O; Nle = CCCC[C@H](N)C(=O)O; Piperidide = C1CCN(*)CC1; Ac5c = NC1(C(=O)O)CCCC1; Aze = O=C(O)[C@@H]1CCN1; Ac4c = NC1(C(=O)O)CCC1; Sar = CNCC(=O)O

Tests used:
[1] = biological target: GDP-bound NRAS wild-type protein (Homo sapiens, UniProt P01111); assay: Binding to NRAS by surface plasmon resonance (SPR), Single Cycle Kinetics
[2] = biological target: GDP-bound KRAS wild-type protein (Homo sapiens, UniProt P01116); assay: Binding to KRAS by surface plasmon resonance (SPR), Single Cycle Kinetics; conditions: GDP-bound KRAS wild-type protein, read-out: KRAS KD
[3] = biological target: GDP-bound HRAS wild-type protein (Homo sapiens, UniProt P01112); assay: Binding to HRAS by surface plasmon resonance (SPR), Single Cycle Kinetics
[4] = SPR, GDP-bound NRAS wild-type protein vs GDP-bound KRAS wild-type protein, KD ratio class
[5] = SPR, Single Cycle Kinetics, 1:1 binding model
[6] = SPR, GDP-bound HRAS wild-type protein vs GDP-bound KRAS wild-type protein, KD ratio class
[7] = SPR, GDP-bound NRAS wild-type protein vs GDP-bound KRAS wild-type protein
[8] = SPR Single Cycle Kinetics, 1:1 binding model
[9] = SPR, GDP-bound HRAS wild-type protein vs GDP-bound KRAS wild-type protein

GDP-bound HRAS wild-type protein, sequence (P01112 whole entry): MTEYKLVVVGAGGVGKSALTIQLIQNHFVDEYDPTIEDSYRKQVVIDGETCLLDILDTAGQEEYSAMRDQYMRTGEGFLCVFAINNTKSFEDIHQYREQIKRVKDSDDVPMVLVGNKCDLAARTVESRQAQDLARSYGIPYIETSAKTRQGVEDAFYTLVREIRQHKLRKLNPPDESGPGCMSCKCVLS
GDP-bound KRAS wild-type protein, sequence (P01116 whole entry): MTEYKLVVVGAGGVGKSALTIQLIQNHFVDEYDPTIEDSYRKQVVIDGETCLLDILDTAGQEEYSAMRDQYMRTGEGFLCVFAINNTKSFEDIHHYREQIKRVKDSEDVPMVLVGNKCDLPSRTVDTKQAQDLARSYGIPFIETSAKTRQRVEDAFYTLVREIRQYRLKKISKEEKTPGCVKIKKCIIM
GDP-bound NRAS wild-type protein, sequence (P01111 whole entry): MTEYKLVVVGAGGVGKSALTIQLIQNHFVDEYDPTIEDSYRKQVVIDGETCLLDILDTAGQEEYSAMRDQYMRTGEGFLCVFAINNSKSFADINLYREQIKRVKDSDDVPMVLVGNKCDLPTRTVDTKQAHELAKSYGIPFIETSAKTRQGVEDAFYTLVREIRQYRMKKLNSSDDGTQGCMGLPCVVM

SMILES | Kd [2, 8] [nM] | NRAS/KRAS (ratio of KD value for NRAS to KD value for KRAS) [1, 7] | HRAS/KRAS (ratio of KD value for HRAS to KD value for KRAS) [3, 9] | also measured
CC[C@H](C)[C@@H]1NC(=O)[C@H](CC2CC2)N(C)C(=O)C[C@@H](C(=O)N(CC)CC)N(C)C(=O)[C@H](C2CCCC2)N(C)C(=O)C2(CC(C)(C)C2)NC(=O)[C@@H]2C[C@@H](F)CN2C(=O)[C@H](CCc2cc(F)c(C(F)(F)F)c(F)c2)NC(=O)CN(C)C(=O)[C@H](Cc2ccc(C(F)(F)F)cc2)N2CC/C=C\C[C@@H](C2=O)N(C)C(=O)CN(C)C1=O [PP1571] | – | – | – | NRAS/KRAS (ratio of KD value for NRAS to KD value for KRAS) [1, 4]: A (a compound having 10 or more and less than 20 is denoted as A); Kd [2, 5]: 0.15 nM; HRAS/KRAS (ratio of KD value for HRAS to KD value for KRAS) [3, 6]: A (a compound having 10 or more and less than 20 is denoted as A)
CCO[C@@H]1C[C@H]2C(=O)NC3(CCC3)C(=O)N(C)[C@@H](C(CC)CC)C(=O)N(C)[C@H](C(=O)N(C)C)CC(=O)N(C)[C@@H](CC(C)C)C(=O)N[C@@H]([C@@H](C)CC)C(=O)N(C)CC(=O)N(C)[C@H]3C/C=C\CCN(C3=O)[C@@H](Cc3ccc(F)cc3C)C(=O)N(C)CC(=O)N[C@@H](CCc3cc(F)c(C(F)(F)F)c(F)c3)C(=O)N2C1 [PP1518] | – | – | – | NRAS/KRAS (ratio of KD value for NRAS to KD value for KRAS) [1, 4]: A (a compound having 10 or more and less than 20 is denoted as A); Kd [2, 5]: 0.58 nM; HRAS/KRAS (ratio of KD value for HRAS to KD value for KRAS) [3, 6]: B (a compound having 3 or more and less than 10 is denoted as B)
CCCN1C(=O)CN(C)C(=O)CNC(=O)[C@H]([C@@H](C)CC)NC(=O)[C@H](CC(C)C)N(C)C(=O)C[C@@H](C(=O)N(C)C)NC(=O)[C@H](C2CCCC2)N(C)C(=O)C2(CCC2)NC(=O)[C@@H]2C[C@@H](OCC)CN2C(=O)[C@H](CCc2ccc(C(F)(F)F)c(Cl)c2)NC(=O)CN(C)C(=O)[C@@H]1Cc1ccc(C(F)(F)F)cc1 [PP0366] ([NMeL]IG[Sar][NPrPhe(4-CF3)][Sar][hPhe(3-Cl-4-CF3)][Hyp](Et)[Ac4c][NMeGly(cPent)]D-NMe2; lactam N-11) | 0.38 | B (a compound having 3 or more and less than 10 is denoted as B) | B (a compound having 3 or more and less than 10 is denoted as B) | –
CCCC[C@@H]1NC(=O)[C@H](CCc2ccc(C(F)(F)F)c(Cl)c2)NC(=O)CN(C)C(=O)[C@H](Cc2ccc(C)cc2)N(CC)C(=O)[C@@H]2CCN2C(=O)[C@H](C)N(C)C(=O)[C@H]([C@@H](C)CC)NC(=O)[C@H](CC(C)C)N(C)C(=O)C[C@@H](C(=O)N2CCCCC2)N(C)C(=O)[C@H](CC(C)C)NC(=O)C(C)(C)N(C)C1=O [PP0048] ([NMeL]I[NMeA][Aze][NEtPhe(4-Me)][Sar][hPhe(3-Cl-4-CF3)][Nle][NMeAib]L[NMeD]-Piperidide; lactam N-11) | 63 | C (A compound having a KD ratio of 0.1 or more and less than 3 is denoted as C) | C (A compound having a KD ratio of 0.1 or more and less than 3 is denoted as C) | –
CCCCN1C(=O)CN(C)C(=O)CN(C)C(=O)[C@H]([C@@H](C)CC)NC(=O)[C@H](CC(C)C)N(C)C(=O)C[C@@H](C(=O)N2CCOCC2)N(C)C(=O)[C@H](C2CCCC2)N(C)C(=O)C2(CCCC2)NC(=O)[C@@H]2CCCN2C(=O)[C@H](CCc2ccc(C(F)(F)F)c(Cl)c2)NC(=O)CN(C)C(=O)[C@@H]1Cc1ccc(C(F)(F)F)cc1 [PP0120] ([NMeL]I[Sar][Sar][X17][Sar][hPhe(3-Cl-4-CF3)]P[Ac5c][NMeGly(cPent)][NMeD]-Morpholide; lactam N-11) | 0.19 | B (a compound having 3 or more and less than 10 is denoted as B) | C (A compound having a KD ratio of 0.1 or more and less than 3 is denoted as C) | –
CC[C@H](C)[C@@H]1NC(=O)[C@H](CC(C)C)N(C)C(=O)C[C@@H](C(=O)N2CCOCC2)N(C)C(=O)[C@H](C2CCCC2)N(C)C(=O)C2(CCCC2)NC(=O)[C@@H]2CCCN2C(=O)[C@H](CCc2ccc(C(F)(F)F)c(Cl)c2)NC(=O)CN(C)C(=O)[C@H](Cc2ccc(C(F)(F)F)cc2)N(CC)C(=O)CN(C)C(=O)CN(C)C1=O [PP0023] ([NMeL]I[Sar][Sar][NEtPhe(4-CF3)][Sar][hPhe(3-Cl-4-CF3)]P[Ac5c][NMeGly(cPent)][NMeD]-Morpholide; lactam N-11) | 0.14 | B (a compound having 3 or more and less than 10 is denoted as B) | C (A compound having a KD ratio of 0.1 or more and less than 3 is denoted as C) | –
CCC[C@H]1C(=O)N[C@@H](C2CCCCC2)C(=O)N(C)CC(=O)N(C)[C@H]2C/C=C\CCN(C2=O)[C@@H](Cc2ccc(C(F)(F)F)cc2)C(=O)N(C)CC(=O)N[C@@H](CCc2ccc(C(F)(F)F)c(Cl)c2)C(=O)N2C[C@H](OCC)C[C@H]2C(=O)NC2(CC(C)(C)C2)C(=O)N(C)[C@@H]([C@@H](C)CC)C(=O)N(C)[C@H](C(=O)N(C)C)CC(=O)N1C [PP3015] | – | AA (a compound having 20 or more is denoted as AA) | A (a compound having 10 or more and less than 20 is denoted as A) | Kd ([2]; SPR, Single Cycle Kinetics): 2.2 nM
CCCN1C(=O)[C@@H]2CCN2C(=O)CN(C)C(=O)[C@H]([C@@H](C)CC)NC(=O)[C@H](CC(C)C)N(C)C(=O)C[C@@H](C(=O)N(C)C)NC(=O)[C@H](C2CCCC2)N(C)C(=O)C2(CCCC2)NC(=O)[C@@H]2CC(F)(F)CN2C(=O)[C@H](CCc2ccc(C(F)(F)F)c(Cl)c2)NC(=O)CN(C)C(=O)[C@@H]1Cc1ccc(C(F)(F)F)cc1 [PP0387] ([NMeL]I[Sar][Aze][NPrPhe(4-CF3)][Sar][hPhe(3-Cl-4-CF3)][Pro(4,4-F2)][Ac5c][NMeGly(cPent)]D-NMe2; lactam N-11) | 0.54 | C (A compound having a KD ratio of 0.1 or more and less than 3 is denoted as C) | B (a compound having 3 or more and less than 10 is denoted as B) | –

More lines, main results first:

Kd [2, 8] [nM] | SMILES | NRAS/KRAS (ratio of KD value for NRAS to KD value for KRAS) [1, 7] | HRAS/KRAS (ratio of KD value for HRAS to KD value for KRAS) [3, 9] | also measured
0.2 | CC[C@H](C)[C@@H]1NC(=O)[C@@H]2CCC/C=C/c3ccc(cc3)C[C@@H](C(=O)N(C)CC(=O)N[C@@H](CCc3ccc(Cl)c(Cl)c3)C(=O)N3CCC[C@H]3C(=O)NC3(CC(C)(C)C3)C(=O)N(C)[C@@H](C3CCCC3)C(=O)N(C)[C@H](C(=O)N(C)CC)CC(=O)N2C)N2CC/C=C\C[C@@H](C2=O)N(C)C(=O)CN(C)C1=O [PP2601] | – | – | NRAS/KRAS (ratio of KD value with respect to GDP-bound NRAS wild-type protein to KD value with respect to KRAS) ([1]; SPR KD ratio NRAS/KRAS, class symbols): A (a compound having 10 or more and less than 20 is denoted as A); HRAS/KRAS (ratio of KD value with respect to GDP-bound HRAS wild-type protein to KD value with respect to KRAS) ([3]; SPR KD ratio HRAS/KRAS, class symbols): A (a compound having 10 or more and less than 20 is denoted as A)
0.027 | CCCN1C(=O)[C@@H]2CCN2C(=O)CN(C)C(=O)[C@H]([C@@H](C)CC)NC(=O)[C@H](CC(C)C)N(C)C(=O)C[C@@H](C(=O)N(C)C)N(C)C(=O)[C@H](C2CCCC2)N(C)C(=O)C2(CCC2)NC(=O)[C@@H]2CC(F)(F)CN2C(=O)[C@H](CCc2ccc(C(F)(F)F)c(Cl)c2)NC(=O)CN(C)C(=O)[C@@H]1Cc1ccc(C(F)(F)F)cc1 [PP0443] ([NMeL]I[Sar][Aze][NPrPhe(4-CF3)][Sar][hPhe(3-Cl-4-CF3)][Pro(4,4-F2)][Ac4c][NMeGly(cPent)][NMeD]-NMe2; lactam N-11) | – | – | NRAS/KRAS (ratio of KD value with respect to NRAS to KD value with respect to KRAS) [1, 7]: C (A compound having a KD ratio of 0.1 or more and less than 3 is denoted as C); HRAS/KRAS (ratio of KD value with respect to HRAS to KD value with respect to KRAS) [3, 9]: C (A compound having a KD ratio of 0.1 or more and less than 3 is denoted as C)
